Assay results as given in patent US7026339B2, “Inhibitors of HCV NS5B polymerase” (priority 2003, dated 2006).

Test system: HuH-7 replicon cells 5–15 and 9–13 (HCV replication)
Assay: Inhibition of viral replication in HuH-7 replicon cells (HCV RNA / GAPDH RNA by multiplex RT-PCR)
Assay type: cell-based
Conditions: Hepatitis C virus, 72 h; inhibiting 50% of replication; HuH-7 replicon cells, 3 days; read-out: IC50
Method in brief: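 Replicon cells seeded at 7×10^3 cells/well, grown 24 h, then exposed 3 days at 37 °C to compound at final 100 μM–1 μM (1% DMSO). Multiplex TaqMan RT-PCR on total RNA quantified HCV 5′-UTR and GAPDH RNA against a standard curve; HCV/GAPDH ratio reported as percent of untreated control.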

Row | SMILES | IC50
1 | COc1cccc(CC(=O)N/N=C/c2c(C)cccc2OS(=O)(=O)c2ccc(C(F)(F)F)cc2)c1 [Compound 203, 2-((E)-{[(3-methoxyphenyl)acetyl]hydrazono}methyl)-3-methylphenyl 4-(trifluoromethyl)benzenesulfonate] | < 5 µM
2 | COc1cccc(CC(=O)N/N=C/c2c(C)cccc2OS(=O)(=O)c2ccc(C)cc2)c1 [Compound 204, 2-((E)-{[(3-methoxyphenyl)acetyl]hydrazono}methyl)-3-methylphenyl 4-methylbenzenesulfonate] | < 5 µM
3 | Cc1ccc(S(=O)(=O)Oc2cccc(F)c2/C=N/NC(=O)Cc2cccc(Cl)c2)cc1 [Compound 205, 2-((E)-{[(3-chlorophenyl)acetyl]hydrazono}methyl)-3-fluorophenyl 4-methylbenzenesulfonate] | 5 to 50 µM
4 | O=C(Cc1cccc(Cl)c1)N/N=C/c1c(F)cccc1OS(=O)(=O)c1ccc(C(F)(F)F)cc1 [Compound 206, 2-((E)-{[(3-chlorophenyl)acetyl]hydrazono}methyl)-3-fluorophenyl 4-(trifluoromethyl)benzenesulfonate] | < 5 µM
5 | COc1cccc(CC(=O)N/N=C/c2c(F)cccc2OS(=O)(=O)c2ccc(C(F)(F)F)cc2)c1 [Compound 207, 3-fluoro-2-((E)-{[(3-methoxyphenyl)acetyl]hydrazono}methyl)-phenyl 4-(trifluoromethyl)benzenesulfonate] | < 5 µM
6 | COc1cccc(CC(=O)N/N=C/c2c(F)cccc2OS(=O)(=O)c2ccc(C)cc2)c1 [Compound 208, 3-fluoro-2-((E)-{[(3-methoxyphenyl)acetyl]hydrazono}methyl)-phenyl 4-methylbenzenesulfonate] | 5 to 50 µM
7 | COc1cccc(CC(=O)N/N=C/c2ccc(Cl)cc2OS(=O)(=O)c2ccc(C)cc2)c1 [Compound 209, 5-chloro-2-((E)-{[(3-methoxyphenyl)acetyl]hydrazono}methyl)-phenyl 4-methylbenzenesulfonate] | < 5 µM
8 | COc1cccc(CC(=O)N/N=C/c2ccc(Cl)cc2OS(=O)(=O)c2ccc(C(F)(F)F)cc2)c1 [Compound 210, 5-chloro-2-((E)-{[(3-methoxyphenyl)acetyl]hydrazono}methyl)-phenyl 4-(trifluoromethyl)benzenesulfonate] | 5 to 50 µM
9 | O=C(Cc1cccc(Cl)c1)N/N=C/c1ccc(F)cc1OS(=O)(=O)c1ccc(C(F)(F)F)cc1 [Compound 211, 2-((E)-{[(3-chlorophenyl)acetyl]hydrazono}methyl)-5-fluorophenyl 4-(trifluoromethyl)benzenesulfonate] | 5 to 50 µM
10 | Cc1ccc(S(=O)(=O)Oc2cc(F)ccc2/C=N/NC(=O)Cc2cccc(Cl)c2)cc1 [Compound 212, 2-((E)-{[(3-chlorophenyl)acetyl]hydrazono}methyl)-5-fluorophenyl 4-methylbenzenesulfonate] | < 5 µM
11 | O=C(Cc1cccc(Cl)c1)N/N=C/c1ncccc1OS(=O)(=O)c1ccc(C(F)(F)F)cc1 [Compound 213, 2-((E)-{2-[2-(3-chlorophenyl)acetyl]hydrazono}methyl)-pyridin-3-yl 4-(trifluoromethyl)benzenesulfonate] | 5 to 50 µM
12 | COc1cccc(CC(=O)N/N=C/c2ncccc2OS(=O)(=O)c2ccc(C(F)(F)F)cc2)c1 [Compound 214, 2-((E)-{2-[2-(3-methoxyphenyl)acetyl]hydrazono}methyl)-pyridin-3-yl 4-(trifluoromethyl)benzenesulfonate] | 5 to 50 µM
13 | O=C(Cc1cccc(Cl)c1)N/N=C/c1cccnc1OS(=O)(=O)c1ccc(C(F)(F)F)cc1 [Compound 215, 3-((E)-{2-[2-(3-chlorophenyl)acetyl]hydrazono}methyl)-pyridin-2-yl 4-(trifluoromethyl)benzenesulfonate] | > 50 µM
14 | COc1cccc(CC(=O)N/N=C/c2ccccc2OS(=O)(=O)c2ccc(N3CCOCC3)nc2)c1 [Compound 216, 2-((E)-{2-[2-(3-methoxyphenyl)acetyl]hydrazono}methyl)-phenyl 6-morpholin-4-ylpyridine-3-sulfonate] | 5 to 50 µM
15 | COc1cccc(CC(=O)N/N=C/c2ccccc2OS(=O)(=O)c2ccc(Oc3cccnc3)cc2)c1 [Compound 217, 2-((E)-{2-[2-(3-methoxyphenyl)acetyl]hydrazono}methyl)-phenyl 4-(pyridin-3-yloxy)benzenesulfonate] | 5 to 50 µM
16 | COc1cccc(CC(=O)N/N=C/c2ccccc2OS(=O)(=O)c2ccc(Oc3ncc(C(F)(F)F)cc3Cl)cc2)c1 [Compound 218, 2-((E)-{2-[2-(3-methoxyphenyl)acetyl]hydrazono}methyl)-phenyl 4-{[3-chloro-5-(trifluoromethyl)pyridin-2-yl]oxy}benzenesulfonate] | > 50 µM
17 | C/C(=N\NC(=O)Cc1ccccc1)c1ccccc1OS(=O)(=O)c1ccc(C(F)(F)F)cc1 [Compound 219, 2-[(1E)-N-(phenylacetyl)ethanehydrazonoyl]phenyl4-(trifluoromethyl)benzenesulfonate] | > 50 µM
18 | COc1cccc(CC(=O)N/N=C(\C)c2cc(F)ccc2OS(=O)(=O)c2ccc(C(F)(F)F)cc2)c1 [Compound 220, 4-fluoro-2-{(1E)-N-[(3-methoxyphenyl)acetyl]ethanehydrazonoyl}-phenyl 4-(trifluoromethyl)-benzenesulfonate] | > 50 µM
19 | COc1cccc(CC(=O)N/N=C(\C)c2ccccc2OS(=O)(=O)c2ccc(C(F)(F)F)cc2)c1 [Compound 221, 2-{(1E)-N-[(3-methoxyphenyl)acetyl]ethanehydrazonoyl}-phenyl 4-(trifluoromethyl)benzenesulfonate] | > 50 µM
20 | COc1cccc(CC(=O)N/N=C(\C)c2ccc(F)cc2OS(=O)(=O)c2ccc(C(F)(F)F)cc2)c1 [Compound 222, 5-fluoro-2-{(1E)-N-[(3-methoxyphenyl)acetyl]ethanehydrazonoyl}-phenyl 4-(trifluoromethyl)benzenesulfonate] | > 50 µM
21 | C/C(=N\NC(=O)Cc1ccc(Cl)c(Cl)c1)c1ccccc1OS(=O)(=O)c1ccc(C(F)(F)F)cc1 [Compound 223, 2-{(1E)-N-[(3,4-dichlorophenyl)acetyl]ethanehydrazonoyl}-phenyl 4-(trifluoromethyl)benzenesulfonate] | > 50 µM
22 | COC(=O)CCc1ccc(S(=O)(=O)Oc2ccccc2/C=N/NC(=O)Cc2cccc(OC)c2)cc1 [Compound 224, methyl 3-(4-{[2-((E)-{[(3-methoxyphenyl)acetyl]hydrazono}methyl)-phenoxy]sulfonyl}phenyl)propanoate] | > 50 µM
23 | COc1cccc(CC(=O)N/N=C/c2ccccc2OS(=O)(=O)c2ccc(OCc3cnc(Cl)s3)cc2)c1 [Compound 225, 2-((E)-{2-[2-(3-methoxyphenyl)acetyl]hydrazono}methyl)-phenyl 4-[(2-chloro-1,3-thiazol-5-yl)methoxy]benzenesulfonate] | > 50 µM
24 | COc1cccc(CC(=O)N/N=C/c2ccccc2OS(=O)(=O)c2ccc(-c3cc(C(F)(F)F)n(C)n3)s2)c1 [Compound 226, 2-((E)-{2-[2-(3-methoxyphenyl)acetyl]hydrazono}methyl)-phenyl 5-[1-methyl-5-(trifluoromethyl)-1H-pyrazol-3-yl]thiophene-2-sulfonate] | < 5 µM
25 | O=C(Cc1cccc(Cl)c1)N/N=C/c1ccncc1OS(=O)(=O)c1ccc(C(F)(F)F)cc1 [Compound 227, 4-((E)-{2-[2-(3-chlorophenyl)acetyl]hydrazono}methyl)-pyridin-3-yl 4-(trifluoromethyl)benzenesulfonate] | < 5 µM
